From patent US20100240656A1, “COMPOUNDS AS HSP90 INHIBITORS” (ORYZON GENOMICS, S.A., priority 2007, published 2010)
Like-named read-outs stand apart in the source and are kept apart here.

Key:
[1] = system: Hsp90 client proteins (c-Raf-1, Cdk4, Her2) and co-chaperone Hsp70; details: literature (Banerji U. et al.); cited from earlier work
HCT-116 = assay: Cell growth inhibition by AlamarBlue method, HCT-116; format: cell-based; details: Homo sapiens; HCT-116, 72 hours; read-out: Cell growth inhibition values (EC50) obtained with AlamarBlue method
Description: (§1) The human colon cancer cell line HCT-116 and the human breast cell lines MCF-7 and SKBr3 were from the American Type Culture Collection (ATCC; CCL-247, HTB-22 and HTB-30, respectively).
(§2) The HCT-116 and SKBr3 cell lines were maintained in DMEM GlutaMAX (Invitrogen) supplemented with 10% fetal calf serum and the MCF-7 cell line was maintained in RPMI1640 GlutaMAX (Invitrogen) containing 1 mM sodium pyruvate and 10% fetal calf serum. Cells were grown in a humidified incubator at 37° C. in 5% CO2
(§3) Cells were plated in 96-well plates (Costar, 3596) at a density of 6000 cells/well in 50 μL medium 24 h before addition of the compounds. Compounds were then added in 8 concentrations, each in triplicate (dilution series of 1 to 3). To do so, a compound-dilution plate at 200× the screening concentrations was prepared in DMSO 100% (Sigma, 154938). Then, 1.7 μL of the 200× diluted compounds were transferred to a new plate and 170 μL of media were added and mixed with the pipette (plate at 2×). Columns 11 and 12 of this plate (controls) were filled with 1% DMSO in cell media (i.e. 1.7 μL DMSO and 170 μL cell media). Finally, 50 μL of this intermediate plate at 2× were transferred to the plate containing the seeded cells and slowly shaken manually. Cells were grown as described above. AlamarBlue viability assay (Biosource, Invitrogen, DAL1100) was performed 72 hours later following manufacturer's protocol. In brief, AlamarBlue diluted in media was added to cells to have a 5% solution (a 2× solution was prepared in media and 100 μL of this solution were transferred to each well, i.e. final volume of 200 μL). Cells were incubated at 37° C., 3 hours and at room temperature for an additional 30 min. Cells with no compound and, cells with no compound and lysed with triton X-100 (30 μL/well added 10 min before treatment with AlamarBlue) were used as controls (6 replicates of each). Fluorescence was monitored at 530 nm excitation and 590 nm emission wavelengths. Results were quantified using ELx800 Universal Microplate Reader (Bio-Tek Instruments, Inc.). EC50 were calculated as the dose of compound required to inhibit cell growth by 50%.

Hsp90α [2] = target: T1, Hsp90α (Homo sapiens, UniProt P07900); assay: Human Hsp90α fluorescence polarization competition assay with Example 37 tracer; details: displacement of 50 nM example 37 tracer, 125 nM Hsp90α, 1 h 30 min, 20° C.; read-out: Relative binding affinity values (IC50) obtained from FP measurements
T1 construct: purchased Stressgen Bioreagents SPP-776
Text: The aim of this study was to determine the binding ability of compounds of the invention to the N-terminal ATP binding site of Hsp90. For that purpose competition assays with fluorescently labeled Hsp90 binders were used (compounds of examples 37 and 41).
Compounds of examples 37 and 41 are structurally based on 8-(6-Iodo-benzo[1,3]dioxol-5-ylsulfanyl)-9-(3-isopropylamino-propyl)-9H-purin-6-ylamine, a known binder of the N-terminal ATP binding site of Hsp90 which has the ability of inhibiting the Hsp90 function (cf. Chiosis G. et al. “Identification of Potent Water Soluble Purine-Scaffold Inhibitors of the Heat Shock Protein 90”, J. Med. Chem., 2006, vol. 49, no. 1, p. 381). Compounds 37 and 41 keep the essential structural features of the known binder (which means that said compounds are able to bind to the ATP binding site) and incorporate a fluorescent probe which allows the detection of the binding by fluorescence polarization.
When the binders of examples 37 and 41 are used in the competition assay, in a first step said binders are allowed to interact with the N-terminal ATP binding site of Hsp90. Then the compounds of the invention are added and it is determined if they are able to bind to the N-terminal ATP binding site (which will imply that the binders of examples 37 and 41 have been replaced from the N-terminal ATP binding site). If after performing the assay, the binding between the tested compound of the invention and the Hsp90 is observed, this will be indicative that the compound of the invention has been bound to the ATP binding site of Hsp90 and, therefore, can inhibit the Hsp90.
(§4) Once compounds of examples 37 and 41 were synthesized as reported above, they were dissolved at 238 μM and 1 mM in DMSO respectively (Sigma-Aldrich, cat. No. 154938). Hsp90α was purchased from Stressgen Bioreagents (cat. No. SPP-776; Victoria, Canada). The assay buffer contained 100 mM Tris·HCl, pH 7.4, 20 mM KCl, 6 mM MgCl2. Before each use 5 μg/mL bovine serum albumin (BSA, Pierce, Rockford (Ill.), cat No. 23209), 0.25 mM TCEP (Sigma, cat No. 64706) and 0.01% NP40 (Nonidet P40 Substitute, Fluka, cat No. 74385) were freshly added (cf. Howes et al., “A fluorescence polarization assay for inhibitors of Hsp90”, Analytical Biochemistry, 2006, vol. 350, p. 202-213; Kim et al., “Development of a fluorescence polarization assay for the molecular chaperone Hsp90”, J. Biomol. Screen., 2004, vol. 9 (5)).
Fluorescence polarization measurements were performed on an Infinite F200 (Tecan, Austria). Measurements were taken in black 96-well microplates (Corning Costar No. 3650) in which both the excitation and the emission occurred from the top of the wells. In the Infinite F200, a xenon arc lamp provides excitation light that passes through a 485 nm (20-nm bandwidth) excitation filter and then a polarizer filter. A beam splitter filter directs the polarized excitation light into the well, and emitted fluorescence transmits back through the same beam-splitter filter, through a polarizer filter, and then through a 535 nm (25-nm bandwidth) emission filter for detection (Kim et al., supra). The read time per well was 20 μs, and the number of reads per well was 25.
Compounds were assayed over a three-fold dilution series in a 96-well plate format to determine IC50 values. The serial dilution was performed in a separate 96-well plate (Thermowell 96 well PCR plate, Non-Treated Polypropylene, Corning Costar No. 6551) at 50 times final assay concentration in DMSO. (Howes et al, supra). 2 μl of compound was transferred to a black 96-well plate (Corning Costar No. 3650) and 98 μL of reaction solution (100 mM Tris·HCl, pH 7.4, 20 mM KCl, 6 mM MgCl2, 5 μg/mL bovine serum albumin (BSA), 0.25 mM TCEP, 0.01% NP40, 50 nM the compound of example 37, 125 nM Hsp90α) was added per well. The plate was allowed to equilibrate for 1 h 30 min on a slow moving shaker at 20° C. in the dark. […]

MCF-7 = assay: Cell growth inhibition by AlamarBlue method, MCF-7; format: cell-based, human; details: MCF-7, 72 hours, read-out: Cell growth inhibition values (EC50) obtained with AlamarBlue method
Description: as §1, §2, §3

Hsp90α [3] = target: T1, Hsp90α; assay: Fluorescence polarization binding isotherms of tracers with Hsp90α; details: fitted to a 1:1 binding model; read-out: dissociation constant (KD) tracer / Hsp90α
Description: as §4
Fluorescence polarization measurements were performed on an Infinite F200 (Tecan, Austria). […] A beam splitter filter directs the polarized excitation light into the well, and emitted fluorescence transmits back through the same beam-splitter filter, through a polarizer filter, and then through a 535 nm (25-nm bandwidth) emission filter for detection (Kim et al., supra). The read time per well was 20 μs, and the number of reads per well was 25. […]

SKBr3 = assay: Cell growth inhibition by AlamarBlue method, SKBr3; format: cell-based; details: Homo sapiens, SK-BR-3; SKBr3, 72 hours; read-out: Cell growth inhibition values (EC50) obtained with AlamarBlue method
Description: as §1, §2, §3

For C=CCNC1=C2C[C@@H](C)C[C@H](OC)[C@H](O)[C@@H](C)/C=C(\C)[C@H](OC(N)=O)[C@@H](OC)/C=C\C=C(/C)C(=O)NC(=CC1=O)C2=O [Example 17AAG, 17-Allylamino, 17-Demethoxygeldanamycin], the “effect of Hsp90 inhibitor on client proteins and Hsp70 as described in the literature” value [1] is listed as “promotes degradation of its client proteins and overexpression of the co-chaperone Hsp70”.

CC(C)NCCCn1c(Sc2cc3c(cc2I)OCO3)nc(C(N)=O)c1N [Example 33, 5-amino-2-(6-iodo-benzo[1,3]dioxol-5-ylsulfanyl)-1-(3-isopropylamino-propyl)-1H-imidazole-4-carboxamide] gave an EC50 (HCT-116) of 3 µM, an IC50 (Hsp90α [2]) of 0.5 µM and an EC50 (MCF-7; Homo sapiens, MCF7) of 3 µM.

For Cc1cc(C)n2c1C=C1C=CC(CCC(=O)NCCNC(=O)CCCCCn3c(Sc4cc5c(cc4I)OCO5)nc4c(N)ncnc43)=[N+]1[B-]2(F)F [Example 37, 6-[6-amino-8-(6-iodo-benzol[1,3]dioxol-5-ylsulfanyl)-purin-9-yl]-hexanoic acid 4,4-difluoro-5,7-dimethyl-4-bora-3a,4a-diaza-s-indacene-3-propionylethylenediamide], the Kd (Hsp90α [3]) was 0.06 µM.

For Nc1ncnc2c1nc(Sc1cc3c(cc1I)OCO3)n2CCCCNC(=O)CCCCCNc1ccc([N+](=O)[O-])c2nonc12 [Example 41, 6-(7-nitro-benzo[1,2,5]oxadiazol-4-ylamino)-hexanoic acid {-4-[6-amino-8-(6-iodo-benzol[1,3]dioxol-5-ylsulfanyl)-purin-9-yl]-butyl}-amide], the Kd (Hsp90α [3]) was 0.021 µM.

With CC(C)N(CCCn1c(Cc2cc3c(cc2I)OCO3)nc(C(N)=O)c1N)C(=O)OC(C)(C)C [Example 44, {3-[5-amino-4-carbamoyl-2-(6-iodo-benzol[1,3]dioxol-5-ylmethyl)-imidazol-1-yl]-propyl}-isopropyl-carbamic acid tert-butyl ester] the IC50 (Hsp90α [2]) was 3.2 µM and the EC50 (MCF-7) was 18.8 µM.

For CCCCn1c(Sc2nc3cccc(Cl)c3s2)nc(C(N)=O)c1N [Example 48, 5-amino-1-butyl-2-(7-chloro-benzothiazol-2-ylsulfanyl)-1H-imidazole-4-carboxamide], the EC50 (HCT-116) was 33 µM, the IC50 (Hsp90α [2]) was 2.76 µM and the EC50 (MCF-7; Homo sapiens, MCF7) was 43 µM.

With CSc1cc2c(cc1Sc1nc(C(N)=O)c(N)n1C)CCO2 [Example 99, 5-amino-2-{[6-(methylthio)-2,3-dihydro-1-benzofuran-5-yl]thio}-methyl-1H-imidazole-4-carboxamide] the EC50 (HCT-116) was 85 µM, the IC50 (Hsp90α [2]) was 13 µM and the EC50 (SKBr3) was 55 µM.
